Reference: patent US10011863B2, “Methods for detecting enhanced NMDA receptor function and uses thereof” (INOVA HEALTH SYSTEM, priority 2016, dated 2018)

Key:
[1] = test system: human GRIN2B promoter (A allele of SNP rs3764030) in N2a cells; test: dual-luciferase reporter gene assay, GRIN2B promoter A allele plasmid; format: cell-based, murine
Method: (§1) FIG. 3 depicts a concentration dependent response of human GRIN2B promoter in N2a cells carrying either the A or G alleles of SNP rs3764030 to NMDA. Luciferase reporter gene plasmids were constructed in pGL 4.10 (to produce Firefly luciferase, Promega, US). Luciferase reporter plasmids and the pGL4.75 plasmid (to produce Renilla luciferase as a reference) were co-transfected into retinoic acid differentiated N2a cells and assayed for (Methods). After 24 hours of transfection, the cells were incubated for six hours with 0, 30, 50, 70 or 90 μM NMDA for transcription factors binding and then replaced with complete media (with 10% FBS) and cultured for an additional 40-44 hrs. Data are presented as means±SE.
(§2) Molecular and cellular characterization of a functional GRIN2B SNP: Luciferase vector construction. […]
(§3) Cell Culture, Transfection, and Luciferase assay. […] The luciferase activities were then measured in Synergy 4 plate reader (Biotek, US).
(§4) Murine Neuro-2a neuroblastoma cells were maintained in RPMI medium 1640 with 10% Fetal Bovine Serum (complete medium) at 37° C. in 5% CO2. […] The luciferase activities were then measured in Synergy 4 plate reader (Biotek US).

[2] = test system: human GRIN2B promoter (G allele of SNP rs3764030) in N2a cells; test: dual-luciferase reporter gene assay, GRIN2B promoter G allele plasmid; format: cell-based, murine; conditions: N2A cells transfected with G allele luciferase reporter plasmid; increasing concentrations of NMDA
Method: as §1, §2, §3, §4

[3] = target: T1, recombinant human Elk-1 protein (Homo sapiens, UniProt P19419); test: Electrophoretic Mobility Shift Assay (EMSA); format: binding; conditions: 1 μg recombinant human Elk-1; gel stained for DNA (SYBR Green) and protein (SYPRO Ruby)
T1 construct: purchased Sigma Aldrich
T1 sequence (P19419 1-428): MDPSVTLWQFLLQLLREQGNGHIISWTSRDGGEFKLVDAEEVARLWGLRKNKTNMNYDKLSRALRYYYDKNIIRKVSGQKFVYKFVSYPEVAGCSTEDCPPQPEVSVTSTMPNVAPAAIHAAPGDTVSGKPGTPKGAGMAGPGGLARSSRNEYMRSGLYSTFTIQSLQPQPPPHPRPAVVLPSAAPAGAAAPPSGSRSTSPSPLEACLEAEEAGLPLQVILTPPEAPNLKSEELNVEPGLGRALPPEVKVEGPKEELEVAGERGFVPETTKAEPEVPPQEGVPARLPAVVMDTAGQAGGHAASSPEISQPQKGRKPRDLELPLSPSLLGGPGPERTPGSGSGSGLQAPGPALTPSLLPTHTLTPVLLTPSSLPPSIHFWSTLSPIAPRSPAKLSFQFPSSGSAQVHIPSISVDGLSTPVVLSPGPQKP
Method: FIG. 2 depicts binding of recombinant Elk-1 protein (an ETS transcription factor) to double stranded DNAs containing the single nucleotide polymorphism (SNP) rs3764030 variant A allele from the human GRIN2B gene promoter. Double-stranded DNA targets (Methods) were sequentially incubated with 1 μg recombinant human Elk-1 protein in EMSA buffer, then incubated with the Elk-1 antibody 20 minutes. […] Samples were electrophoresed through 6% polyacrylamide gels in HEPES buffer pH 6.3, without polydldC. The gel was then stained with the SYBR Green to visualize DNA and SYPRO Ruby for protein bound to DNA. The stained gel was scanned using G:BOX (Syngene, US) for imaging. Elk-1 bound to DNA is indicated by the arrow.
Electrophoretic Mobility Shift Assay (EMSA). To monitor the interaction between the ETS domain transcription factor, Elk-1, and its DNA recognition sequence in vitro, we used EMSA. The DNA sequences for positive control containing a GGAT consensus core binding sequence were: Forward: 5′ […] 3′ (SEQ ID NO:2) and Reverse: 5′ […] 3′ (SEQ ID NO:3). The negative control region was: Forward: 5′ […] 3′ (SEQ ID NO:4) and Reverse: 5′ […] 3′ (SEQ ID NO:5), as described in Wei et al (2010). The forward and reverse sequence for GRIN2B A allele which created the ETS binding site were: 5′ […] 3′ (SEQ ID NO:6)and 5′ […] 3′ (SEQ ID NO:7), repectively. […]

Molecule	dose-dependent increase in luciferase activity ([1]; N2A cells transfected with A allele reporter, increasing concentrations of NMDA (0, 30, 50, 70, 90 μM))	reporter gene activity of A allele relative to cells carrying the G allele reporter ([1]; NMDA receptor activation, dose-dependent, A allele vs G allele) [fold]	luciferase reporter response to NMDA treatment [2]	binding of recombinant Elk-1 to DNA probe [3]
CN[C@H](CC(=O)O)C(=O)O [NMDA, N-methyl-D-aspartate]	2.4-11.5 fold	2	did not respond	–
A allele DNA probe: annealed dsDNA of GRIN2B A allele, 5′ CATCTCCGGGGAACACGCGAA 3′ (SEQ ID NO:6) and SEQ ID NO:7, creating ETS binding site (chain 2 TTCGCGTGTTCCCCGGAGATG; listed as DNA, chemistry not given here)	–	–	–	bound recombinant Elk-1 to a greater extent than the G allele DNA probe
